The values that follow come from patent US4868181A, “1,4-dihydropyridine derivatives with calcium agonist and alpha1 -antagonist activity” (E. I. Du Pont de Nemours and Company, priority 1987, dated 1989).

Structures are written as SMILES. Where only a bound is given, the exact number is not on record here.

In one test the target is T1, Ca^2 + channels (Rattus norvegicus, UniProt P22002).
T1 construct: rat cardiac microsomes (source of Ca^2 + channels); from tissue; host or cells: rat cardiac microsomes
Nature of the test: [^3 H]-Nitrendipine binding assay (affinity for calcium channels). The settings on record: rat cardiac microsomes, 0.5 nM [^3 H]-nitrendipine, 60 minutes at 25°. On the procedure:
[^3 H]-Nitrendipine binding assay was carried out according to the method described by G. T. Bolger, et al., Biochem. Biophys. Res. Comm., 104, 1604-1609, 1982 (1). The reaction mixture contained rat cardiac microsomes (source of Ca^2 + channels), 0.5 nM [^3 H]-nitrendipinewith or without potential displacer in Tris buffer. The mixture was incubated for 60 minutes at 25° and subsequently terminated by rapid filtration through a glass fiber-filter. Membrane-bound [^3 H]-nitrendipine trapped in the filter was quantitated by scintillation counting. The inhibitory concentration (IC50) of potential displacer which gives 50% displacement of the total specifically bound [^3 H]-nitrendipine is presented as a measure of the affinity of such compound for the Ca^2 + channel.

The next test deals with alpha1 -adrenoceptors. Nature of the test: [^3 H]-prazosin binding assay (affinity for alpha1-adrenoceptors). Conditions: rat brain membranes, 0.2 nM [^3 H]-prazosin, 60 minutes at 25°. How it is done: The [^3 H]-prazosin binding assay was carried out according to the method described by Timmermans, P. B. M. W. M., Schoop, A. M. C., and Van Zwieten, P. A.: Biochem Pharmacol., 31, 899-905, 1982 (1). The reaction mixture contained partially purified rat brain membranes (source of alpha1 -adrenoceptors), 0.2 nM [^3 H]-prazosin with or without potential displacer in Tris buffer. The mixture was incubated for 60 minutes at 25° and subsequently terminated by rapid filtration through glass fiber-filter. Receptor-bound [^3 H]-prazosin trapped in the filter was quantitated by scintillation counting. The inhibitory concentration (IC50) of potential displacer which gives 50% displacement of the total specifically bound [^3 H]-prazosin is presented as a measure of the affinity of such compound for the alpha1 -adrenoceptor.

The next test has as its system guinea pig left atria. Kind of test: Positive inotropic effect in guinea pig left atria. The settings on record: 37°; for EC50: left atria paced at 2Hz, cumulative addition to maximum 10^-4, read-out: EC50 (concentration that increases DT by 50% above the control DT); for Intrinsic Activity (ratio of the maximum effect of the test compound to that of Bay K 8644): relative to Bay K 8644, left atria paced at 2Hz. On the procedure: Guinea pigs are killed by cervical dislocation. The left atria are removed and mounted at 1 gm resting tension in tissue baths containing oxygenated Krebs bicarbonate solution which is kept at 37°. The left atria are electrically paced at 2Hz with square wave pulses of 1 msec duration. The voltage is set at 1.5× threshold level.
After a one hour equilibration period, control values for developed tension (DT, gm) are recorded. Test compounds are then added to the baths, in a cumulative manner to a maximum concentration of 10^-4, to obtain a concentration-response curve. Treatment values of DT are obtained after the rug effect has reached a plateau and the exposure time for each concentration is 5-8 minutes. Percent change of the treatment value from the control value is calculated at each concentration of the test compound.

T1 sequence (P22002 whole entry, other chains not shown): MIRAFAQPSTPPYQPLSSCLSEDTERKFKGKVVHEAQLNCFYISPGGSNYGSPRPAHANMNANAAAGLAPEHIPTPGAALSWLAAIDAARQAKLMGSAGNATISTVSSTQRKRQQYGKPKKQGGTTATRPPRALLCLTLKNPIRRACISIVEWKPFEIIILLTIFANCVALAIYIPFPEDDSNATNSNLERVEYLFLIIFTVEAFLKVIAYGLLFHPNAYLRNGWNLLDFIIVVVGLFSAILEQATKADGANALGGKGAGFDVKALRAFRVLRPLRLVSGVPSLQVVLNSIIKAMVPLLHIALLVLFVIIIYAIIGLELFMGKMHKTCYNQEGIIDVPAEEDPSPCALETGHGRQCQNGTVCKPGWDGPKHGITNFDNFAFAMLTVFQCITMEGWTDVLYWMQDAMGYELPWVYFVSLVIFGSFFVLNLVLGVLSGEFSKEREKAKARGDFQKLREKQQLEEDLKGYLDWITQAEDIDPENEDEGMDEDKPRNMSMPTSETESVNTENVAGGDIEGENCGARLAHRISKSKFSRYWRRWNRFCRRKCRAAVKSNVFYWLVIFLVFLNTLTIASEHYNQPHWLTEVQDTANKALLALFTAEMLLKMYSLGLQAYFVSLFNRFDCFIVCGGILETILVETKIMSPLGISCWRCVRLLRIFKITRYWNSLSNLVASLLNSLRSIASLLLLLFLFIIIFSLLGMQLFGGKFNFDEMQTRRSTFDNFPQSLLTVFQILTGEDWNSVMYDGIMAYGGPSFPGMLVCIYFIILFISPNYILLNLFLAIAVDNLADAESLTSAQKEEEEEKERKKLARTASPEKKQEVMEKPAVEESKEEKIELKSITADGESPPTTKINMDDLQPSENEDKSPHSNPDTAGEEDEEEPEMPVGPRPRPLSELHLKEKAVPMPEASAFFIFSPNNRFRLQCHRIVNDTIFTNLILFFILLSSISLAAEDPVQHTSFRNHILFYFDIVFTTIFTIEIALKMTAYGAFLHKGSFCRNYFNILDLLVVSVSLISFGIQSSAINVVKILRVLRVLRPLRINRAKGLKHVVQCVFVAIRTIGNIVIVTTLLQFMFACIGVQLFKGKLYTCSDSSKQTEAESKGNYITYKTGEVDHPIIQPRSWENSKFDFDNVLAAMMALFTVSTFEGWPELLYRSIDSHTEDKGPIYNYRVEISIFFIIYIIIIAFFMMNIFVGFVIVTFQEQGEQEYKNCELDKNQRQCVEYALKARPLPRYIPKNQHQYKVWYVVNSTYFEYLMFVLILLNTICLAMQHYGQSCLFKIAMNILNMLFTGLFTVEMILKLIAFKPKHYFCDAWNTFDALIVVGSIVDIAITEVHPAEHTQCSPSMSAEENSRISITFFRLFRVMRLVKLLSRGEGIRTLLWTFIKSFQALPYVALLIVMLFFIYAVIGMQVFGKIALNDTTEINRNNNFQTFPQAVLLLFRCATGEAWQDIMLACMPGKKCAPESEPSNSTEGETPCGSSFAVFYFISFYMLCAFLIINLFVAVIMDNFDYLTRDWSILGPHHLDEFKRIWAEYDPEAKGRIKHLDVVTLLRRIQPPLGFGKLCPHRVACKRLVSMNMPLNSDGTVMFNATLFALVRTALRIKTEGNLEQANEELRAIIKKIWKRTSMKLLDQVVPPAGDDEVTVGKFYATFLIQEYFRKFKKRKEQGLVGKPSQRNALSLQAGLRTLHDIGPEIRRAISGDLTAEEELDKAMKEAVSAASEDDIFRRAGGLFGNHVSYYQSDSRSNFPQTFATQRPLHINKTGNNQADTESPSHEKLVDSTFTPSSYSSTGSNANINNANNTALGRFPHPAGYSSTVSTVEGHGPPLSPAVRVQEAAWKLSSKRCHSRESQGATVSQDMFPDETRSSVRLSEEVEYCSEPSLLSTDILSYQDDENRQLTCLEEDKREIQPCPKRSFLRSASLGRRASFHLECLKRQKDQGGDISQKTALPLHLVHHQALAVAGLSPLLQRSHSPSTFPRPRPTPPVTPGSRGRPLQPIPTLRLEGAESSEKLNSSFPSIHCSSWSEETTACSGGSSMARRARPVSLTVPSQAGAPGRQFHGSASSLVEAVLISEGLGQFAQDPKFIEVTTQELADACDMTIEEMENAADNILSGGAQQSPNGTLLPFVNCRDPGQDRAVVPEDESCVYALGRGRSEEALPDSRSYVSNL
T1 sequence (P54290 25-944 partner limits assumed, other chains not shown): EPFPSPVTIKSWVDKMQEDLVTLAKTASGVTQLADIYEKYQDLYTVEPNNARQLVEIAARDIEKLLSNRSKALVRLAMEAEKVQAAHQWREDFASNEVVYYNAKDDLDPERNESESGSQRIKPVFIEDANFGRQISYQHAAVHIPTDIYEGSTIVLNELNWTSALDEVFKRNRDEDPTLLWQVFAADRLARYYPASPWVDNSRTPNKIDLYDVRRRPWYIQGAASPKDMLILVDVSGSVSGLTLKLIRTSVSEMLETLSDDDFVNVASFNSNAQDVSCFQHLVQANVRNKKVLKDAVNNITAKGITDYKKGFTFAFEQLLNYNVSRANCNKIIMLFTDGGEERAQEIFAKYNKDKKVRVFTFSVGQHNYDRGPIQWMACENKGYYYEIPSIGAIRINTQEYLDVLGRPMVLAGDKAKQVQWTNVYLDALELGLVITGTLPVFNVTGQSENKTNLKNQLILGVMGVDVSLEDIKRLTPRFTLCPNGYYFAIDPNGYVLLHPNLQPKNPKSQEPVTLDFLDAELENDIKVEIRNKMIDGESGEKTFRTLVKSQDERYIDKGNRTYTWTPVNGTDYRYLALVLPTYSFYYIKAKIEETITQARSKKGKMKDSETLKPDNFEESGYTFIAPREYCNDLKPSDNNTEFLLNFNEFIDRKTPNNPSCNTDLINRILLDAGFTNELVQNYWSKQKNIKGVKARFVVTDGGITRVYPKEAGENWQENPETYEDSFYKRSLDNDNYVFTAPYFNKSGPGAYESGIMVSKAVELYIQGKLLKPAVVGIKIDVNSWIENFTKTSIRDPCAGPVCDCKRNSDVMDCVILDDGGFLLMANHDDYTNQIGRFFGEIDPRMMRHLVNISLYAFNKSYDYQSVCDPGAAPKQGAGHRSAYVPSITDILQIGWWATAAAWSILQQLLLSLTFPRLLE
T1 sequence (P54290 945-1091 partner limits assumed, other chains not shown): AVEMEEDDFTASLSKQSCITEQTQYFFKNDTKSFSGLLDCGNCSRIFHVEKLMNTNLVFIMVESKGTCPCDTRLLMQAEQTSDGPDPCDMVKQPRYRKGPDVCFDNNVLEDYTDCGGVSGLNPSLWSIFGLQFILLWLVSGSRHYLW

`COc1ccccc1N1CCN(CCOC(=O)C2=C(C)NC(C)=C([N+](=O)[O-])C2c2ccccc2C(F)(F)F)CC1` (stereo not shown) [Example 2, 1,4-Dihydro-2,6-Dimethyl-5-nitro-4-[2-(trifluoromethyl)phenyl]-[2-[4-(2-methoxyphenyl)-1-piperazinyl]ethyl]ester-3-pyridinecarboxylic acid]: the IC50 on Ca^2 + channels came out at 29 nM. Also, the IC50 on alpha1 -adrenoceptors was 800 nM. In the test on guinea pig left atria, the EC50 turned out to be 44 nM and the “Intrinsic Activity (ratio of the maximum effect of the test compound to that of Bay K 8644)” value amounted to 145%.

For the compound `COc1ccccc1N1CCN(CCOC(=O)C2=C(C)NC(C)=C([N+](=O)[O-])C2c2ccccc2Cl)CC1` (stereo not shown) [Example 5], the IC50 on Ca^2 + channels worked out at 73 nM. Besides, the IC50 on alpha1 -adrenoceptors turned out to be 490 nM. In addition, in the test on guinea pig left atria, the EC50 amounted to 560 nM and the “Intrinsic Activity (ratio of the maximum effect of the test compound to that of Bay K 8644)” value came to 100%.

Consider `COc1cccc(OC)c1OCCNCCOC(=O)C1=C(C)NC(C)=C([N+](=O)[O-])C1c1ccccc1C(F)(F)F` (stereo not shown) [Example 13], for which the IC50 is 830 nM at Ca^2 + channels and over 10000 nM at alpha1 -adrenoceptors. Also, the EC50 in the test with guinea pig left atria turned out to be 30000 nM. Further, the “Intrinsic Activity (ratio of the maximum effect of the test compound to that of Bay K 8644)” value in the test on guinea pig left atria amounted to 50%.

`COc1ccccc1N1CCN(CCCCOC(=O)C2=C(C)NC(C)=C([N+](=O)[O-])C2c2ccccc2C(F)(F)F)CC1` (stereo not shown) [Example 56]: the IC50 on Ca^2 + channels and on alpha1 -adrenoceptors was 300 nM throughout. The EC50 with guinea pig left atria amounted to 6000 nM. In the test with guinea pig left atria, the “Intrinsic Activity (ratio of the maximum effect of the test compound to that of Bay K 8644)” value is 100%.

Consider `COC(=O)C1=C(C)NC(C)=C([N+](=O)[O-])C1c1ccccc1OCCN1CCN(c2ccccc2OC)CC1` (stereo not shown) [Example 58], for which the IC50 on Ca^2 + channels stood at 850 nM. On alpha1 -adrenoceptors, the IC50 was determined as 130 nM. Besides, in the test on guinea pig left atria, the EC50 turned out to be 1900 nM and the “Intrinsic Activity (ratio of the maximum effect of the test compound to that of Bay K 8644)” value was 90%.

Turning to `COC(=O)C1=C(C)NC(C)=C([N+](=O)[O-])C1c1ccccc1OCCCCCN1CCN(c2ccccc2OC)CC1` (stereo not shown) [Example 59, 1,4-dihydro-2,6-dimethyl-4[2-(5-(4-(2-methoxyphenyl)-1-piperazinyl)pentoxyl)-phenyl]-5-nitro-methyl ester-3-pyridinecarboxylic acid], the IC50 at Ca^2 + channels amounted to 290 nM. The same compound registered an IC50 on alpha1 -adrenoceptors of 130 nM. Further, in the test with guinea pig left atria, the EC50 stood at 1000 nM and the “Intrinsic Activity (ratio of the maximum effect of the test compound to that of Bay K 8644)” value was determined as 35%.

Regarding `COC(=O)C1=C(C)NC(C)=C([N+](=O)[O-])C1c1ccccc1OCCCCN1CCN(c2ncccn2)CC1` (stereo not shown) [Example 60, 1,4-dihydro-2,6-dimethyl-'nitro-4-[2-(4-(4-(2-pyrimidinyl)-piperazinyl)butoxy)phenyl]methylester-36pyridinecarboxylic acid], the 50% inhibitory concentration (IC50) at Ca^2 + channels worked out at 1000 nM. This compound also displayed an IC50 at alpha1 -adrenoceptors of 4900 nM. Also, in the test on guinea pig left atria, the EC50 is 1000 nM and the “Intrinsic Activity (ratio of the maximum effect of the test compound to that of Bay K 8644)” value is given as 50%.

`COC(=O)C1=C(C)NC(C)=C([N+](=O)[O-])C1c1ccccc1OCCCCCCCCCCN1CCN(c2ccccc2OC)CC1` (stereo not shown) [Example 61, 1,4-dihydro-2,6-dimethyl-4[2(10-(4-(2-methoxyphenyl)-piperazinyl)decyloxy)phenyl]-5-nitro-methyl ester-3-pyridinecarboxylic acid]: the IC50 on Ca^2 + channels was determined as 67 nM. The IC50 on alpha1 -adrenoceptors turned out to be 1100 nM. For the same compound, in the test on guinea pig left atria, the EC50 was over 100000 nM and the “Intrinsic Activity (ratio of the maximum effect of the test compound to that of Bay K 8644)” value is reported as 10%.

In the case of `COC(=O)C1=C(C)NC(C)=C([N+](=O)[O-])C1c1cccc(OCCN2CCN(c3ccccc3OC)CC2)c1` (stereo not shown) [Example 69], the results for the IC50 on Ca^2 + channels and on alpha1 -adrenoceptors were 4600 nM and 350 nM, respectively. Besides, the EC50 in the test with guinea pig left atria is over 100000 nM. Further, the “Intrinsic Activity (ratio of the maximum effect of the test compound to that of Bay K 8644)” value in the test with guinea pig left atria worked out at 10%.

In the case of `COC(=O)C1=C(C)NC(C)=C([N+](=O)[O-])C1c1cccc(OC)c1OCCN1CCN(c2ccccc2OC)CC1` (stereo not shown) [Example 87], the IC50 at Ca^2 + channels came to 2900 nM; on alpha1 -adrenoceptors, 48 nM. In addition, in the test with guinea pig left atria, the EC50 was over 100000 nM. Also, in the test on guinea pig left atria, the “Intrinsic Activity (ratio of the maximum effect of the test compound to that of Bay K 8644)” value is reported as 0%.

Broadly, the IC50 is the midpoint of a concentration-inhibition curve.
